# Legend:
# [1] = assay type: physicochemical
# Excerpt: In certain embodiments of the invention, the dry powder compositions may comprise myo-inositol (cis-1,2,3,5-trans-4,6-cyclohexanehexyl). Dry powder compositions comprising myo-inositol are disclosed in the Sievers et al U.S. Patent Application No. 2008/0035143 A1, incorporated herein in its entirety, although other myo-inositol dry powder compositions, including those generally and/or specifically disclosed herein are also suitable for use in embodiments of the present invention. Dry powder compositions comprising myo-inositol may optionally further include one or more of amino acids, for example, arginine, alanine, histidine, leucine, and/or methionine, surfactants, for example, palmitic acid, stearic acid, Tween 20, Tween 80, and/or Pluronic F68, stabilizers, buffers, for example, tricine, sodium or potassium phosphate, sodium acetate, and/or sodium citrate, metal chelating agents, for example EDTA and/or DTPA, gelatin, albumin, or the like. In one specific embodiment, myo-inositol and leucine are employed in a 98.5:1.5 weight ratio. Advantageously, myo-inositol dry powder compositions containing one or more additional components are provided using the CAN-BD process. It has been discovered that when pure myo-inositol is processed by the CAN-BD process at a temperature of about 50° C., a crystal polymorph which is different from the common crystal polymorph of native myo-inositol forms. This polymorph has an exothermic transition with onset of 110-130° C. and appears to be thermally stable at room temperature for only short periods of time (less than 2 weeks), but remains for longer periods of time when stored at temperatures of 2-8° C. (for at least 3 months and up to 5 months), and is removed by annealing at 115° C. or above. The moisture content of this new polymorph is very low (0.1% water) and identical to the moisture content of native myo-inositol. The X-ray diffraction pattern of this polymorph differs from those of native myo-inositol and a previously disclosed myo-inositol dihydrate (Bonnet 2006). […]
# [2] = test system: P13K; conditions: conclusion of Gustafson et al; cited from earlier work
# [3] = test system: dysplastic lesions; conditions: three months, cited from earlier work
Structure (SMILES),period of thermal stability [1],"moisture content ([1]; new polymorph, identical to native myo-inositol) [% water]",period for which the polymorph remains ([1]; stored at 2-8° C.),P13K inhibition [2],maximum tolerated dose ([3]; oral administration to the gastrointestinal tract) [grams per day],"regression in dysplastic lesions ([3]; oral, mild to moderate airway dysplasia)"
"O[C@H]1[C@H](O)[C@@H](O)[C@H](O)[C@@H](O)[C@H]1O [crystal polymorph, myo-inositol]",less than 2 weeks,0.1,at least 3 months,–,–,–
"O[C@H]1[C@H](O)[C@@H](O)[C@H](O)[C@@H](O)[C@H]1O [myo-inositol, cis-1,2,3,5-trans-4,6-cyclohexanehexyl]",–,–,–,P13K inhibitor,18,significant regression

# — patent US9895321B2, “Vaccines, methods of administering vaccines, methods and products for treating and/or delaying onset of dysplastic lesions, and wafers for oral administration” (AKTIV-DRY LLC, priority 2010, dated 2018)
